Here are results for four compounds from patent publication US6485922B1, “Methods for detecting compounds which modulate the activity of an LPA receptor” (Atairgin Technologies, Inc., priority 1997, dated 2002).

One series deals with T1, human LPA receptor EDG-2 (Homo sapiens, UniProt Q92633).
T1 construct: The EDG-2 coding region was amplified by RT-PCR using Pfu DNA polymerase; expressed in transfected cells; host or cells: Saccharomyces cerevisiae JEY5 (sst2-, far1, FUS1::lacZ), plasmid pYEUra3-Edg2 (pJE15), galactose-inducible
In words: FUS1::lacZ (β-galactosidase) reporter assay in yeast expressing EDG-2. The series is classed as cell-based. To be noted: for activation of EDG-2 (FUS1::lacZ activity): concentrations up to 200 μM, S.C.+2% galactose; for activity towards EDG-2 of liposome preparations on their own: liposomes without LPA. As for the experimental part: SY2069 (Mata, far1-bad3, HIS3::pFUS1::HIS3, mfa2-Δ1::pFUS1::lacZ, ura3, leu2, ade1, arg4, trp1) was used to derive an sst2^− strain for subsequent studies. SST2 was disrupted using pBC14 (Dohlman, H. G., et al. (1996) Mol. Cell. Biol. 16(9), 5194-5209). pBC14 was digested with NcoI and transformed into SY2069 by lithium acetate using the URA3 gene for selection. Ura^+ colonies were grown in non-selective media (YEPD) and plated onto media containing 5-Flouro-orotic Acid (5-FOA, Sigma). The resultant 5-FOA resistant isolates were tested for the supersensitive phenotype by assaying lacZ activity in response to α-factor (data not shown). One sst2^− strain was named JEY5 and used in all subsequent studies. Yeast were grown in SC+2% Galactose or 2% Glucose media lacking Uracil.
Construction of EDG-2 Expression Plasmid and Expression in Yeast: The EDG-2 coding region was amplified by RT-PCR using Pfu DNA polymerase under conditions described by the supplier (Stratagene). The template for RT-PCR was cDNA (5 ng) that was reverse transcribed from human fetal brain total RNA (Clontech) using SuperScript II Reverse Transcriptase as described by the supplier (Gibco BRL). 1 μM each of the following primers, FP; 5′-[…]-3′ (SEQ ID NO. 2) and RP; 5′-[…]-3′ (SEQ ID NO. 3), were used for RT-PCR. Oligonucleotide Synthesis and DNA Sequencing: PCR primers and DNA sequencing primers were synthesized by the phosphoramidite method with an Applied Biosystems model 394 synthesizer, purified by polyacrylamide gel electrophoresis and desalted on Sep-Pak C18 cartridges (Waters Associates, Milford, Mass.). The edg-2 cDNA was sequenced in pYEUra3 by the dideoxy chain termination method using the T7 Sequenase7-deaza-dGTP sequencing kit as described by the supplier (Amersham Life Science). The primers were designed based on the human edg-2 cDNA sequence submitted to Genbank by Zondag and Moolenaar (accession no. Y09479) and included restriction site extensions for subcloning into the pYEUra3 vector (Stratagene). This placed the cDNA under the control of a galactose-inducible promoter (UASgal). The resulting plasmid was used to transform JEY5 by the lithium acetate method.
(§1) Expression of the EDG-2: To test the effects of the SST2 gene product on the edg-2 response to LPA, JEY5 (sst2Δ) expressing the EDG-2 receptor was compared to the parental SY2069 strain (SST2^+). […] As a control, JEY5+EDG-2 was assayed in 2% glucose such that the GAL1 promoter would be repressed and thus not expressing the edg-2 gene (glucose repression is described in detail by Johnston, M., and Carlson, M. (1992) in The molecular and cellular biology of the yeast Saccharomyces: gene expression (Broach, J. R., Pringle, J. R., and Jones, E. W., eds), pp. 193-281, Cold Spring Harbor Laborartory Press, Plainview, N.Y.). lacZ assays in response to phospholipids: JEY5+pJE15 was grown on SC media containing either 2% galactose or 2% glucose lacking uracil to an approximate optical density of 0.1-0.5 prior to the addition of lipid or α-factor. LPA and other glycerophospholipids (Avanti Polar Lipids) were dissolved in chloroform and dried down under vacuum immediately prior to experiments and resuspended in BBS/EDTA (50 mM NH4HCO3, 104 mM NaCl, 250 mM EDTA2Na) at 1 mg/ml with sonication until the solution was clear. Sphingosine-1-phosphate (Matreya) was resuspended in ethanol/water (9:1) pH 3.0 immediately prior to use. Fatty Acid Free Bovine Serum Albumin was obtained from Sigma (St. Louis, Mo.) and used at 0.1 mg/ml in BBS/EDTA. Cells were allowed to grow for the indicated time (7 hours for dose response experiments) prior to assaying. 100 μl of yeast culture were then added to 900 μl assay buffer (per liter: 60 mM Na2HPO4, 40 mM NaH2PO4, 10 mM KCl, 0.1 mM MgSO4, pH 7.0 plus 2.7 ml β-mercaptoethanol per liter) plus 50 μl 0.1%SDS+three drops Chloroform. Cells were vortexed for 10 seconds and incubated for 5 minutes at 28° C.
A general note: In a reporter assay the amount or activity of a reporter protein is the signal.

The test system of the next series is yeast cells. In words: Toxicity of lipids to the yeast cells in the lacZ assay. The series is classed as cell-based, Saccharomyces cerevisiae. To be noted: yeast culture. As to the method: as §1, with “[…] Color development” for “Fatty Acid Free Bovine Serum Albumin”, “measured at A420” for “obtained from Sigma (St. Louis, Mo.)”, “normalized to A600. Units” for “used at 0.1 mg/ml in BBS/EDTA. Cells”, “expressed as Miller Units. […]” for “allowed to grow for the indicated time (7 hours for dose response experiments) prior to assaying. 100 μl of yeast culture were then added to 900 μl assay buffer (per liter: 60 mM Na2HPO4, 40 mM NaH2PO4, 10 mM KCl, 0.1 mM MgSO4, pH 7.0 plus 2.7 ml β-mercaptoethanol per liter) plus 50 μl 0.1%SDS+three drops Chloroform. Cells were vortexed for 10 seconds and incubated for 5 minutes at 28° C.”

T1 sequence (Q92633 whole entry): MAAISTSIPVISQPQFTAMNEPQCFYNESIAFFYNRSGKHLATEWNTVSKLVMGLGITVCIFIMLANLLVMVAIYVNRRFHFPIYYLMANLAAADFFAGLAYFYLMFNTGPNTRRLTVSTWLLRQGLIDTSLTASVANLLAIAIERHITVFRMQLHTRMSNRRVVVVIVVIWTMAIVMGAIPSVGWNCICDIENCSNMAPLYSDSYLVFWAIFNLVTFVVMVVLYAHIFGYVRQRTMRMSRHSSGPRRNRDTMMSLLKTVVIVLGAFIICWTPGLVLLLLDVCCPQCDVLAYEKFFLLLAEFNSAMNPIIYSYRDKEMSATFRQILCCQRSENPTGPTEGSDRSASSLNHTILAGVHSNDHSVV

Regarding “1-acyl-2-hydroxy-sn-glycero-3-phosphate [LPA]”, on human LPA receptor EDG-2 (JEY5 (sst2Δ) expressing EDG-2, 200 μM LPA, galactose, seven hours), the “response of FUS1::lacZ to LPA, sst2- derivative” value is on record as “activated”. In addition, on human LPA receptor EDG-2 (seven hours), the “activation of EDG-2 (FUS1::lacZ activity)” value is given as “specifically responds”. For the same compound, the “response of FUS1::lacZ to LPA, SST2+ strain” value on human LPA receptor EDG-2 (parental SY2069 strain (SST2+) expressing EDG-2) is on record as “unresponsive”. For the same compound, the “maximal stimulation of lacZ activity as compared to vector control” value at human LPA receptor EDG-2 (time course, at 7 hours) is “four-fold”. The “concentration at which toxicity was seen / above which testing was not possible due to toxicity” value in the series with yeast cells was “above 600 μM”.
As for “1-palmitoyl-2-oleoyl-phosphatidylglycerol”, the “activity towards EDG-2 of liposome preparations on their own” value on human LPA receptor EDG-2 was “no activity”.
Take `CCCCCCCCCCCCC/C=C/[C@@H](O)[C@@H](N)COP(=O)(O)O` [Sphingosine-1-phosphate]: the “activation of EDG-2 (FUS1::lacZ activity)” value on human LPA receptor EDG-2 (seven hours) was “no other lyso-glycerolphospholipid or Sphingosine-1-phosphate activated EDG-2 as well as did LPA”; on human LPA receptor EDG-2 (seven hours, listed as sphingosine-1-phosphate), “does not respond”.
As for dioleoyl-phosphatidylcholine, the “activity towards EDG-2 of liposome preparations on their own” value on human LPA receptor EDG-2 is “no activity”.
